# Data: patent publication US10070645B2, “N-cycloalkyl-N-{[2-(1-substitutedcycloalkyl)phenyl]methylene}-(thio)carboxamide derivatives” (BAYER CROPSCIENCE AKTIENGESELLSCHAFT, priority 2013, dated 2018)
# Assay: log P by HPLC on a reversed-phase column (C 18), EEC Directive 79/831 Annex V.A8
# Format: physicochemical
# Settings: HPLC on reversed-phase column (C 18), 40° C., 0.1% aqueous formic acid and acetonitrile, linear gradient 10% to 90% acetonitrile
# Description: In table 1, the log P values were determined in accordance with EEC Directive 79/831 Annex V.A8 by HPLC (High Performance Liquid Chromatography) on a reversed-phase column (C 18), using the method described below:
# Temperature: 40° C.; Mobile phases: 0.1% aqueous formic acid and acetonitrile; linear gradient from 10% acetonitrile to 90% acetonitrile.
# Calibration was carried out using unbranched alkan-2-ones (comprising 3 to 16 carbon atoms) with known log P values (determination of the log P values by the retention times using linear interpolation between two successive alkanones). lambda-max-values were determined using UV-spectra from 200 nm to 400 nm and the peak values of the chromatographic signals.
row,logP,Compound
1,4.81,Cn1nc(C(F)F)c(C(=O)N(Cc2c(C3(C)CC3(Cl)Cl)ccc(Cl)c2Cl)C2CC2)c1Cl (racemic) [I.174]
2,3.96,Cn1nc(C(F)F)c(C(=O)N(Cc2cc(F)ccc2C2(C(F)(F)F)CC2)C2CC2)c1Cl [I.166]
3,4.24,Cc1ccc(C2(C)CC2(Cl)Cl)c(CN(C(=O)c2c(C(F)F)nn(C)c2F)C2CC2)c1 (racemic) [I.172]
4,3.68,COCC1(c2ccc(C)cc2CN(C(=O)c2c(C(F)F)nn(C)c2Cl)C2CC2)CC1 [I.183]
5,4.67,Cc1ccc(C2(C)CC2(Cl)Cl)c(CN(C(=O)c2c(C(F)F)nn(C)c2F)C2CC2)c1Cl (racemic) [I.178]
6,4.11,Cc1ccc(C2(C(F)(F)F)CC2)c(CN(C(=O)c2c(C(F)F)nn(C)c2F)C2CC2)c1 [I.167]

# Same assay, conditions: HPLC, reversed-phase column (C 18), 40° C., 0.1% aqueous formic acid and acetonitrile, linear gradient 10% to 90% acetonitrile
row,Compound,logP
1,CCc1ccc(C2(C)CC2)c(CN(C(=O)c2c(C(F)F)nn(C)c2F)C2CC2)c1 [I.065],4.56
2,CCC1(c2ccccc2CN(C(=O)c2c(C(F)F)nn(C)c2Cl)C2CC2)CC1 [I.097],4.34
3,Cn1nc(C(F)F)c(C(=O)N(Cc2ccc(-c3ccsc3)cc2C2(C)CC2)C2CC2)c1F [I.040],4.61
4,Cn1nc(C(F)F)c(C(=S)N(Cc2cc(F)c(F)cc2C2(C)CC2)C2CC2)c1Cl [I.050],4.90
5,Cn1nc(C(F)F)c(C(=O)N(Cc2ccc(-c3cccc(F)c3)cc2C2(C)CC2)C2CC2)c1F [I.038],4.96
6,Cn1nc(C(F)F)c(C(=S)N(Cc2cccc(F)c2C2(C)CC2)C2CC2)c1F [I.010],4.49
7,Cn1nc(C(F)F)c(C(=O)N(Cc2cc(Cl)ccc2C2(C#N)CC2)C2CC2)c1Cl [I.095],3.31
8,COC1(c2ccccc2CN(C(=O)c2c(C(F)F)nn(C)c2F)C2CC2)CC1 [I.116],3.27
9,Cc1cc(CN(C(=O)c2c(C(F)F)nn(C)c2Cl)C2CC2)c(C2(C)CC2)cc1C [I.052],4.53
10,CCC1(c2ccccc2CN(C(=O)c2c(C(F)F)nn(C)c2F)C2CC2)CC1 [I.096],4.21
11,CCC1(c2ccc(C(F)(F)F)cc2CN(C(=O)c2c(C(F)F)nn(C)c2Cl)C2CC2)CC1 [I.109],4.85
12,Cn1nc(C(F)F)c(C(=O)N(Cc2ccc(-c3ccoc3)cc2C2(C)CC2)C2CC2)c1F [I.039],4.23
13,Cc1ccc(CN(C(=O)c2c(C(F)F)nn(C)c2F)C2CC2)c(C2(C)CC2)c1 [I.026],4.21
14,Cn1nc(C(F)F)c(C(=O)N(Cc2cc(-c3cn(C)c4ccccc34)ccc2C2(C)CC2)C2CC2)c1F [I.082],5.00
15,CC(C)c1ccc(C2(C)CC2)c(CN(C(=O)c2c(C(F)F)nn(C)c2F)C2CC2)c1 [I.070],4.61
16,Cc1ccc(C2(C)CC2)c(CN(C(=O)c2c(C(F)F)nn(C)c2Cl)C2(C#N)CC2)c1 [I.078],3.87

row,Compound,logP
1,Cn1nc(C(F)F)c(C(=O)N(Cc2ccccc2C2(C)CC2)C2CC2)c1Cl [I.002],4.01
2,COC1(c2ccc(C(C)C)cc2CN(C(=O)c2c(C(F)F)nn(C)c2F)C2CC2)CC1 [I.121],4.29
3,CCC1(c2cc(C(F)(F)F)ccc2CN(C(=O)c2c(C(F)F)nn(C)c2F)C2CC2)CC1 [I.100],4.75
4,Cc1ccc(C2(C)CC2)c(CN(C(=O)c2c(C(F)F)nn(C)c2F)C2CC2)c1Cl [I.086],4.51
5,Cn1nc(C(F)F)c(C(=S)N(Cc2ccc(F)cc2C2(C)CC2)C2CC2)c1Cl [I.024],4.74
6,Cn1nc(C(F)F)c(C(=S)N(Cc2cc(F)ccc2C2(C)CC2)C2CC2)c1Cl [I.069],4.64
7,COC1(c2ccc(Cl)cc2CN(C(=O)c2c(C(F)F)nn(C)c2F)C2CC2)CC1 [I.118],3.67
8,Cn1nc(C(F)F)c(C(=O)N(Cc2ccc(Cl)cc2C2(C)CC2)C2CC2)c1Cl [I.019],4.54
9,C=Cc1ccc(C2(C)CC2)c(CN(C(=O)c2c(C(F)F)nn(C)c2F)C2CC2)c1 [I.080],4.34
10,Cc1cc(CN(C(=O)c2c(C(F)F)nn(C)c2F)C2CC2)c(C2(C)CC2)cc1C [I.051],4.36
11,Cn1nc(C(F)F)c(C(=O)N(Cc2cccc(C3CCCCC3)c2C2(C)CC2)C2CC2)c1F [I.007],5.74
12,CCC1(c2cccc(F)c2CN(C(=O)c2c(C(F)F)nn(C)c2Cl)C2CC2)CC1 [I.115],4.34
13,Cc1ccc(C2(C)CC2)c(CN(C(=S)c2c(C(F)F)nn(C)c2Cl)C2CC2)c1 [I.074],4.98
14,CCC1(c2cc(Cl)ccc2CN(C(=O)c2c(C(F)F)nn(C)c2Cl)C2CC2)CC1 [I.103],4.82
15,Cn1nc(C(F)F)c(C(=O)N(Cc2ccc(F)cc2C2(C)CC2)C2CC2)c1Cl [I.022],4.06
16,C#CC1(c2ccc(C)cc2CN(C(=O)c2c(C(F)F)nn(C)c2Cl)C2CC2)CC1 [I.093],3.78

# Next, values leading:
row,logP,Compound
1,4.06,Cc1ccc(C2(Cl)CC2)c(CN(C(=O)c2c(C(F)F)nn(C)c2Cl)C2CC2)c1 [I.133]
2,4.76,COC1(c2ccc(C3=CCCC3)cc2CN(C(=O)c2c(C(F)F)nn(C)c2F)C2CC2)CC1 [I.126]
3,3.89,Cc1ccc(C2(Cl)CC2)c(CN(C(=O)c2c(C(F)F)nn(C)c2F)C2CC2)c1 [I.132]
4,3.55,Cn1nc(C(F)F)c(C(=O)N(Cc2ccc(F)cc2C2(C(F)F)CC2)C2CC2)c1Cl [I.145]
5,4.46,Cn1nc(C(F)F)c(C(=O)N(Cc2c(C(F)(F)F)cccc2C2(C)CC2Cl)C2CC2)c1F (stereo not shown) [I.141]
6,5.11,Cc1ccc(C2(C(C)C)CC2)c(CN(C(=O)c2c(C(F)F)nn(C)c2Cl)C2CC2)c1 [I.136]
7,3.76,Cn1nc(C(F)F)c(C(=O)N(Cc2cc(Br)ccc2C2(C(F)F)CC2)C2CC2)c1F [I.146]
8,3.76,Cc1ccc(C2(C(F)F)CC2)c(CN(C(=O)c2c(C(F)F)nn(C)c2Cl)C2CC2)c1 [I.154]
9,3.80,COC1(c2ccc(-c3ccoc3)cc2CN(C(=O)c2c(C(F)F)nn(C)c2F)C2CC2)CC1 [I.125]
10,4.21,CCOC1(c2ccc(C)cc2CN(C(=O)c2c(C(F)F)nn(C)c2Cl)C2CC2)CC1 [I.138]
11,3.33,Cn1nc(C(F)F)c(C(=O)N(Cc2ccccc2C2(C(F)F)CC2)C2CC2)c1F [I.142]
12,3.76,Cn1nc(C(F)F)c(C(=O)N(Cc2c(Br)cccc2C2(C(F)F)CC2)C2CC2)c1F [I.155]

# Same assay, conditions: Table 4 (aldehydes of formula IV); HPLC C 18, 40° C., 0.1% aqueous formic acid and acetonitrile
row,Compound,logP
1,3-fluoro-2-(1-methylcyclopropyl)benzaldehyde [IV.14],3.13

# Same assay, conditions: reversed-phase HPLC column (C 18); Table 3 (amines of formula II); HPLC C 18, 40° C., 0.1% aqueous formic acid and acetonitrile
row,chromatographic logP,Compound
1,1.16,"FC(F)C1(c2ccc(Cl)cc2CNC2CC2)CC1 [II.38, N-{5-chloro-2-[1-(difluoromethyl)cyclopropyl]benzyl}cyclopropanamine]"
2,1.63,"CCC1(c2ccc(C)cc2CNC2CC2)CC1 [II.30, N-[2-(1-ethylcyclopropyl)-5-methylbenzyl]cyclopropanamine]"
3,1.49,"COCC1(c2ccc(C)cc2CNC2CC2)CC1 [II.22, N-{2-[1-(methoxymethyl)cyclopropyl]-5-methylbenzyl}cyclopropanamine]"
4,1.79,"CC1(c2cc(Cl)c(Cl)cc2CNC2CC2)CC1 [II.07, N-[4,5-dichloro-2-(1-methylcyclopropyl)benzyl]cyclopropanamine]"
5,4.07,"Cc1ccc(C2(C)CC2)c(CNC2(C#N)CC2)c1 [II.14, 1-{[5-methyl-2-(1-methylcyclopropyl)benzyl]amino}cyclopropanecarbonitrile]"
6,1.43,"CC1(c2c(CNC3CC3)ccc3c2OCO3)CC1 [II.03, N-{[4-(1-methylcyclopropyl)-1,3-benzodioxol-5-yl]methyl}cyclopropanamine]"
7,0.77,"N#CC1(c2ccc(Cl)cc2CNC2CC2)CC1 [II.20, 1-{4-chloro-2-[(cyclopropylamino)methyl]phenyl}cyclopropanecarbonitrile]"
8,1.22,"C#CC1(c2ccc(Cl)cc2CNC2CC2)CC1 [II.16, N-[5-chloro-2-(1-ethynylcyclopropyl)benzyl]cyclopropanamine]"
9,1.7,"CC1(c2ccc(Cl)cc2CNC2CC2)CC1 [II.10, N-[5-chloro-2-(1-methylcyclopropyl)benzyl]cyclopropanamine]"
10,1.36,"CC1(c2c(F)cccc2CNC2CC2)CC1 [II.02, N-[3-fluoro-2-(1-methylcyclopropyl)benzyl]cyclopropanamine]"
11,1.47,"FC(F)(F)C1(c2ccc(Cl)cc2CNC2CC2)CC1 [II.44, N-{5-chloro-2-[1-(trifluoromethyl)cyclopropyl]benzyl}cyclopropanamine]"

# Same assay, conditions: reversed-phase HPLC column (C 18); Table 4 (aldehydes of formula IV); HPLC C 18, 40° C., 0.1% aqueous formic acid and acetonitrile
row,chromatographic logP,Compound
1,4.69,"CCCC1(c2cc(Cl)ccc2C=O)CC1 [IV.19, 4-chloro-2-(1-propylcyclopropyl)benzaldehyde]"
2,3.44,"CC1(c2cc(F)c(F)cc2C=O)CC1 [IV.06, 4,5-difluoro-2-(1-methylcyclopropyl)benzaldehyde]"
3,2.68,"COC(=O)C1(c2ccc(Cl)cc2C=O)CC1 [IV.25, methyl 1-(4-chloro-2-formylphenyl)cyclopropanecarboxylate]"
4,2.35,"N#CC1(c2ccc(Cl)cc2C=O)CC1 [IV.15, 1-(4-chloro-2-formylphenyl)cyclopropanecarbonitrile]"

# Same assay, conditions: reversed-phase HPLC column (C 18); preparation examples
row,chromatographic logP,Compound
1,4.93,CC1(c2ccc(Cl)cc2Br)CC1 [2-bromo-4-chloro-1-(1-methylcyclopropyl)benzene]
